Data from patent US7399775B2, “β-amyloid protein production/secretion inhibitor” (Daiichi Pharmaceutical Co., Ltd., priority 2001, dated 2008).

Tested on: β-amyloid protein (Aβ) production/secretion in E35 cells (H4 cells transfected with APP751)
Test: Cell-based assay for inhibition of production or secretion of β-amyloid protein (sandwich ELISA of Aβ in culture medium)
Set-up: species or system human
Details: 24 h with compound, Aβ in medium by sandwich ELISA, read-out: Activity (EC50 class, inhibition of Aβ secreted in culture medium)
Description: Cell-Based Assay for Screening of a Compound Which Inhibits Production or Secretion of β-Amyloid Protein
E35 cells which were established by transfecting APP751 gene which is a wild type human β-amyloid protein precursor into human glioma cells (H4 cells), were used to analyze inhibitory activity of a compound against β-amyloid production. The amount of β protein (Aβ) secreted in a culture medium was measured by the sandwich enzyme-linked imunosorbent assay.
E35 cells were seeded in Dulbecco's Modified Eagle's Medium containing 10% inactivated fetal bovine serum on 96-well plates and cultured in humidified air and 5% CO2 at 37° C. in a CO2 incubator. Twenty-four hours after seeding of the cells, a test compound dissolved in DMSO was added to the medium. The DMSO solution of the compound was prepared so as to give the final concentration of DMSO in the medium 0.05%. The cells were cultured for additional twenty-four hours, and then the cultured medium was collected. The medium collected was applied to a 96-well ELISA plate on which a monoclonal antibody 25-1, which recognized Aβ25-35, was immobilized, followed by the incubation at 4° C. for 16 to 20 hours. After washing with a phosphate buffer (pH 7.4), a biotinylated monoclonal antibody MA32-40, which recognizes Aβ1-8, was added to the plate, and the plate was incubated at 4° C. for 2 hours. Then alkaline phosphatase-conjugated streptavidin was added to the plate. Alkaline phosphatase activity was measured by a […] assay using BlouPhos (manufactured by KPL) as a substrate. An amount of Aβ in the medium was calculated using a calibration curve separately created. EC50 of the test compound was presented as the concentration that gives 50% inhibitory activity compared to the control cells which were not treated with the compound.

`CC(CCCS(C)(=O)=O)C(c1cc(F)ccc1F)S(=O)(=O)c1ccc(Cl)cc1` (stereo not drawn) [Example 47, 2-[1-[(4-Chlorophenyl)sulfonyl]-2-methyl-5-(methylsulfonyl)pentyl]-1,4-difluorobenzene] and `CSCCCC(C)C(c1cc(F)ccc1F)S(=O)(=O)c1ccc(Cl)cc1` (single isomer, unassigned) [Example 43 (Isomer 43-B), 2-[1-[(4-Chlorophenyl)sulfonyl]-2-methyl-5-(methylthio)pentyl]-1,4-difluorobenzene] cannot be ordered by EC50: at most 50 nM for the first, 50 to 500 nM for the second.

Same assay, conditions: Homo sapiens, 24 h, 24 h with compound, Aβ in medium by sandwich ELISA, read-out: Activity (EC50 class, inhibition of Aβ secreted in culture medium)

`O=S(=O)(c1ccc(Cl)cc1)C(c1ccc(CO)cn1)c1cc(F)ccc1F` (stereo not drawn) [Example 331, 2-[(4-chlorophenylsulfonyl)(2,5-difluorophenyl)methyl]-5-(hydroxymethyl)pyridine] and `O=C(O)CCc1ccc(C(c2cc(F)ccc2F)S(=O)(=O)c2ccc(Cl)cc2)nc1` (stereo not drawn) [Example 334, 3-[6-[(4-Chlorophenylsulfonyl)-(2,5-difluorophenyl)methyl]pyridin-3-yl]propionic Acid] fall in the same range of EC50: 50 to 500 nM for the first, 50 to 500 nM for the second.

Compared with `CC(CCCCO)(c1cc(F)ccc1F)S(=O)(=O)c1ccc(Cl)cc1` (stereo not drawn) [Example 17, 5-(4-Chlorophenylsulfonyl)-5-(2,5-difluorophenyl)-1-hexanol], `CCCCC(c1cc(F)ccc1F)S(=O)(=O)c1ccc(Cl)cc1` (stereo not drawn) [Example 3, 2-[1-[(4-Chlorophenyl)sulfonyl]pentyl]-1,4-difluorobenzene] is lower in EC50: 500 to 5000 nM for the first, 50 to 500 nM for the second.

`COC(=O)OCc1ccc(C(c2cc(F)ccc2F)S(=O)(=O)c2ccc(Cl)cc2)nc1` (stereo not drawn) [Example 372, [6-(4-Chlorophenylsulfonyl)(2,5-difluorophenyl)methylpyridin-3-yl]methyl Methyl Carbonate] and `CS(=O)(=O)NCc1ccc(C(c2cc(F)ccc2F)S(=O)(=O)c2ccc(Cl)cc2)nc1` (stereo not drawn) [Example 370, N-[[6-(4-Chlorophenylsulfonyl)(2,5-difluorophenyl)methylpyridin-3-yl]methyl]methanesulfonamide] fall in the same range of EC50: 50 to 500 nM for the first, 50 to 500 nM for the second.

`O=S(=O)(c1ccc(Cl)cc1)C(c1cc(F)ccc1F)c1cc(N2CCC[C@H]2CO)ncc1Cl` (stereo partly drawn) [Example 399] and `NCC1CN(c2cc(C(c3cc(F)ccc3F)S(=O)(=O)c3ccc(Cl)cc3)c(Cl)cn2)CCO1` (stereo not drawn) [Example 402, 2-Aminomethyl-4-[5-chloro-4-[(4-chlorophenylsulfonyl)-(2,5-difluorophenyl)methyl]pyridin-2-yl]morpholine] cannot be ordered by EC50: at most 50 nM for the first, at most 50 nM for the second.

`O=S(=O)(c1ccc(Cl)cc1)C1(c2cc(F)ccc2F)CCOCC1` [Example 48, 4-[(4-Chlorophenyl)sulfonyl]-4-(2,5-difluorophenyl)tetrahydropyrane] and `O=S(=O)(c1ccc(Cl)cc1)C1(c2cc(F)ccc2F)CCCCC1` [Example 33, 2-[1-[(4-Chlorophenyl)sulfonyl]cyclohexyl]-1,4-difluorobenzene] cannot be ordered by EC50: at most 50 nM for the first, at most 50 nM for the second.

First: [O-][S+](c1ccc(Cl)cc1)C(c1cc(F)ccc1F)c1ccncc1Cl (stereo not drawn) [Example 344, 3-Chloro-4-[(4-chlorophenylsulfinyl)-(2,5-difluorophenyl)methyl]pyridine]
Second: CCCCC(c1cc(F)ccc1F)[S+]([O-])c1ccc(Cl)cc1 (single isomer, unassigned) [Example 2 (Isomer 2-B), 2-[1-[(4-Chlorophenyl)sulfinyl]pentyl]-1,4-difluorobenzene]
The EC50 of the first is lower: at most 50 nM for the first, 500 to 5000 nM for the second. The first is the more potent here.

`CSCCCC(C)C(c1cc(F)ccc1F)S(=O)(=O)c1ccc(Cl)cc1` (single isomer, unassigned) [Example 43 (Isomer 43-A), 2-[1-[(4-Chlorophenyl)sulfonyl]-2-methyl-5-(methylthio)pentyl]-1,4-difluorobenzene] and `CC(CCC[S+](C)[O-])C(c1cc(F)ccc1F)S(=O)(=O)c1ccc(Cl)cc1` (stereo not drawn) [Example 45, 2-[1-[(4-Chlorophenyl)sulfonyl]-2-methyl-5-(methylsulfinyl)pentyl]-1,4-difluorobenzene] cannot be ordered by EC50: 50 to 500 nM for the first, at most 50 nM for the second.

First: CCCC=C(c1cc(F)ccc1F)S(=O)(=O)c1ccc(Cl)cc1 [Example 12, 2-[1-[(4-Chlorophenyl)sulfonyl]-1-penten-1-yl]-1,4-difluorobenzene]
Second: CS(=O)(=O)CCCCC(c1cc(F)ccc1F)S(=O)(=O)c1ccc(Cl)cc1 (stereo not drawn) [Example 27 (Compound A), 2-[1-[(4-Chlorophenyl)sulfonyl]-5-(methylsulfonyl)pentyl]-1,4-difluorobenzene]
The EC50 of the first is higher: 500 to 5000 nM for the first, 50 to 500 nM for the second.

`O=S(=O)(c1ccc(Cl)cc1)C(c1cc(F)ccc1F)c1cc(Cl)ncc1Cl` (stereo not drawn) [Example 345, 2,5-Dichloro-4-[(4-chlorophenylsulfonyl)-(2,5-difluorophenyl)methyl]pyridine 0.5 hydrate] and `CNCCN(C)c1cc(C(c2cc(F)ccc2F)S(=O)(=O)c2ccc(Cl)cc2)c(Cl)cn1` (stereo not drawn) [Example 397, 5-Chloro-4-[(4-chlorophenylsulfonyl)-(2,5-difluorophenyl)methyl]-2-[N-methyl-N-[2-(methylamino)ethyl]amino]pyridine] cannot be ordered by EC50: at most 50 nM for the first, at most 50 nM for the second.

Work on `O=S(=O)(c1ccc(Cl)cc1)C(c1cc(F)ccc1F)c1cc(NCC[N+]2([O-])CCOCC2)ncc1Cl` (stereo not drawn) [Example 349, 4-[2-[5-Chloro-4-[(4-chlorophenylsulfonyl)-(2,5-difluorophenyl)methyl]pyridin-2-yl]aminoethyl]morpholine N-Oxide] yielded an EC50 of at most 50 nM.

Tested on: not given
Test: not given
Details: not given

First: O=S(=O)(c1ccc(Cl)cc1)C(c1ccc(CO)cn1)c1cc(F)ccc1F (stereo not drawn) [Example 331, 2-[(4-chlorophenylsulfonyl)(2,5-difluorophenyl)methyl]-5-(hydroxymethyl)pyridine]
Second: O=C(O)CCc1ccc(C(c2cc(F)ccc2F)S(=O)(=O)c2ccc(Cl)cc2)nc1 (stereo not drawn) [Example 334, 3-[6-[(4-Chlorophenylsulfonyl)-(2,5-difluorophenyl)methyl]pyridin-3-yl]propionic Acid]
The melting point of the first is lower: 151 to 152 °C for the first, 158 to 160 °C for the second.

First: CC(CCCS(C)(=O)=O)C(c1cc(F)ccc1F)S(=O)(=O)c1ccc(Cl)cc1 (stereo not drawn) [Example 47, 2-[1-[(4-Chlorophenyl)sulfonyl]-2-methyl-5-(methylsulfonyl)pentyl]-1,4-difluorobenzene]
Second: CC(CCC[S+](C)[O-])C(c1cc(F)ccc1F)S(=O)(=O)c1ccc(Cl)cc1 (stereo not drawn) [Example 45, 2-[1-[(4-Chlorophenyl)sulfonyl]-2-methyl-5-(methylsulfinyl)pentyl]-1,4-difluorobenzene]
The melting point of the first is higher: 142 to 144 °C for the first, 107 to 112 °C for the second.

Compared with `O=S(=O)(c1ccc(Cl)cc1)C1(c2cc(F)ccc2F)CCOCC1` [Example 48, 4-[(4-Chlorophenyl)sulfonyl]-4-(2,5-difluorophenyl)tetrahydropyrane], `O=S(=O)(c1ccc(Cl)cc1)C1(c2cc(F)ccc2F)CCCCC1` [Example 33, 2-[1-[(4-Chlorophenyl)sulfonyl]cyclohexyl]-1,4-difluorobenzene] is lower in melting point: 157 to 160 °C for the first, 137 to 139 °C for the second.

Compared with `CCCC=C(c1cc(F)ccc1F)S(=O)(=O)c1ccc(Cl)cc1` [Example 12, 2-[1-[(4-Chlorophenyl)sulfonyl]-1-penten-1-yl]-1,4-difluorobenzene], `NC(=O)OCCC(c1cc(F)ccc1F)S(=O)(=O)c1ccc(Cl)cc1` (stereo not drawn) [Example 214, 3-[(4-Chlorophenyl)sulfonyl]-3-(2,5-difluorophenyl)propyl=carbamate] is higher in melting point: 95.5 to 97 °C for the first, 139 to 140 °C for the second.

Compared with `O=S(=O)(c1ccc(Cl)cc1)C1(c2cccnc2Cl)CCCCCC1` [Example 108, 2-Chloro-3-[1-(4-chlorophenylsulfonyl)cycloheptyl]pyridine], `CC1CCCC1(c1cc(F)ccc1F)S(=O)(=O)c1ccc(Cl)cc1` (stereo not drawn) [Example 279, 2-[1-[(4-Chlorophenyl)sulfonyl]-2-methylcyclopentyl]-1,4-difluorobenzene] is lower in melting point: 168 to 169 °C for the first, 105 to 109 °C for the second.

First: Cl.O=C(OCCC(c1cc(F)ccc1F)S(=O)(=O)c1ccc(Cl)cc1)N1CCN(Cc2ccccc2)CC1 (stereo not drawn)
Second: O=S(=O)(c1ccc(Cl)cc1)C(Cc1ccccc1CO)c1cc(F)ccc1F (stereo not drawn) [Example 277, [2-[2-[(4-Chlorophenyl)sulfonyl]-2-(2,5-difluorophenyl)ethyl]phenyl]methanol]
The melting point of the first is higher: 184 to 189 °C for the first, 107 to 108 °C for the second.

First: CC(C)(C)OC(=O)CC(c1cc(F)ccc1F)S(=O)(=O)c1ccc(Cl)cc1 (stereo not drawn) [Example 61, t-Butyl 3-[(4-chlorophenyl)sulfonyl]-3-(2,5-difluorophenyl)propionate]
Second: CS(=O)(=O)NCCC(c1cc(F)ccc1F)S(=O)(=O)c1ccc(Cl)cc1 (stereo not drawn) [Example 245, N-[3-(4-Chlorophenylsulfonyl)-3-(2,5-difluorophenyl)propyl]methanesulfonamide]
The melting point of the first is higher: 140.5 to 142 °C for the first, 131 to 134 °C for the second.

First: Cc1ccc(S(=O)(=O)NCC(=O)NCc2ccc(C(c3cc(F)ccc3F)S(=O)(=O)c3ccc(Cl)cc3)nc2)cc1 (stereo not drawn) [Example 358, N-[[6-[(4-Chlorophenylsulfonyl)(2,5-difluorophenyl)methyl]pyridin-3-yl]methyl]-2-(4-methylphenylsulfonylamino)acetamide]
Second: O=S(=O)(CCO)CCC(c1cc(F)ccc1F)S(=O)(=O)c1ccc(Cl)cc1 (stereo not drawn) [Example 255, 2-[3-[(4-Chlorophenyl)sulfonyl]-3-(2,5-difluorophenyl)propylsulfonyl]ethanol]
The melting point of the first is higher: 217 to 218 °C for the first, 111 to 113 °C for the second.

`CS(=O)(=O)CCCCC(c1cscn1)S(=O)(=O)c1ccc(Cl)cc1` (stereo not drawn) [Example 112, 4-[1-(4-Chlorophenylsulfonyl)-5-(methylsulfonyl)pentyl]thiazole] and `O=S(=O)(c1ccc(Cl)cc1)C(CC[S+]([O-])CCO)c1cc(F)ccc1F` (stereo not drawn) [Example 254, 2-[3-[(4-Chlorophenyl)sulfonyl]-3-(2,5-difluorophenyl)propylsulfinyl]ethanol] cannot be ordered by melting point: 123 to 125 °C for the first, 124 to 132 °C for the second.

First: O=S(=O)(c1ccc(Cl)cc1)C(c1ccncc1)C1CCCC1 (stereo not drawn) [Example 121, 4-[(4-Chlorophenylsulfonyl)(cyclopentyl)methyl]pyridine]
Second: O=S(=O)(c1ccc(Cl)cc1)C(CCCC1CCCCC1)c1cc(F)ccc1F (stereo not drawn) [Example 317, 2-[1-(4-Chlorophenylsulfonyl)-4-cyclohexylbutyl]-1,4-difluorobenzene]
The melting point of the first is higher: 133 to 135 °C for the first, 47 to 49 °C for the second.

Work on `O=c1oc2ccccc2c(O)c1C(Sc1ccc(Cl)cc1)c1cc(F)ccc1F` (stereo not drawn) yielded a melting point of 146 to 147 °C.
